This note sets out measurements from article PMC10633902, “Investigating the antimicrobial activity, cytotoxicity, and action mechanism of acylated and amidated derivatives of AurH1 antifungal peptide” (BMC Microbiology, 2023).

Data set [1] deals with Aspergillus flavus (ATCC 24,109). The experiment in a line: microbe, parasite or virus in culture. The format is cell-based. The method, then:
(§1) The human skin fibroblast (Hu02 cell) and human breast cancer cells (MDA-MB-231 and SKBR-3 cell lines) were purchased from the National Cell Bank of Iran, Pasture Institute of Ira) for cytotoxicity test. Antimicrobial effects of the Ac-AurH1, AurH1-NH2, and AurH1 against the selected bacteria and fungi were conducted using a standard serial dilution method in a 96-well microplate. For this purpose, the desired fungal and bacterial strains were grown overnight at 37 °C (Some of the fungi were incubated at 25 °C) in related media (SDA for fungi and MHA for bacteria). […] Next, serially diluted synthetic peptides in a volume of 100 μL were added to the microtitre plates, followed by 100 μL of bacteria and fungi to give a final inoculum of 5 × 10^5 colony-forming units (CFU)/ml (a 0.5 McFarland standard inoculum). […] In this test, penicillin and streptomycin antibiotics for bacteria and fluconazole, nystatin, and amphotericin B for fungal strains were used as antibiotic control. […] All tests were repeated three times independently.

Data set [2] concerns Aspergillus niger (ATCC 9142). The experiment in a line: microbe, parasite or virus in culture. In kind it is cell-based. As for the experimental part: as §1
For data set [3], the system named is Candida albicans (ATCC 10,231). The experiment in a line: microbe, parasite or virus in culture. In kind it is cell-based. The method, then: as §1
Data set [4] relates to Candida glabrata (ATCC 90,030). Description: microbe, parasite or virus in culture. In kind it is cell-based. As for the experimental part:
as §1

In data set [5] the test system is Candida krusei (ATCC 28,870). The experiment in a line: microbe, parasite or virus in culture. In kind it is cell-based. The method, then:
as §1

Data set [6] concerns C. albicans. Description: Killing kinetic assay (time of killing). In kind it is cell-based, Candida albicans. As to conditions: 1X MIC concentration.
Data set [7] has as its system Escherichia coli (ATCC 25,922). Description: microbe, parasite or virus in culture. The format is cell-based. The method, then:
as §1

Data set [8] concerns Staphylococcus aureus (ATCC 25,923). The experiment in a line: microbe, parasite or virus in culture. The format is cell-based. The method, then: as §1
Data set [9] has as its system Human skin fibroblast (Hu02 cells). The format is cell-based. As for the experimental part: Toxicity of peptides on Human skin fibroblast (Hu02 cells) and two human breast cancer cell lines (MDA-MB-231 and SKBR3 cell lines) measured by an MTT assay. At first, cell lines with a density of 1 × 10^5 cells were cultured in the wells of 96-well plates for 24 h under standard conditions (37 °C temperature, 5% CO2 atmosphere with 95% relative humidity). After that, the old medium was replaced with fresh medium (with 10% FBS) containing different peptide concentrations, and the cells were incubated for 24 h. A medium without peptide was used as a negative control. After 24 h of incubation and washing the wells with PBS, the medium (containing 10% FBS) was replaced with fresh medium containing 10% MTT solution (freshly prepared 5 mg/ml MTT in PBS), and the plate was incubated for four h in 5% CO2, at 37 °C. Next, the medium was removed from the wells, and 100 µL DMSO was added. Afterward, the plate was shaken to dissolve Formazan crystals. Finally, by a microplate reader (STAT FAX 2100, BioTek, Winooski, USA), the absorbance values were measured at a wavelength of 595 nm. The percentage of toxicity was calculated as follows: […]

Data set [10] relates to human red blood cells. The format is cell-based. As to conditions: 1 h. The method, then: A hemolytic assay was performed to investigate the effects of peptides on human red blood cells. First, 5 ml of fresh human blood was taken from a volunteer. After that, 20% (v/v) suspension of human erythrocytes was prepared and diluted in PBS (1:20). Next, 100 µL of this blood suspension was added in triplicate to 100 µL of a 2-fold serial dilution series of the peptide in a 96‐well plate. 1% Triton-X 100 was used as a positive control to lyse 100% of RBCs, and sterile 0.9% NaCl solution was used as a negative control. Then the plates were incubated at 37 °C for 1 h and centrifuged at 3500 rpm for 10 min. Next, 100 µL of the supernatant was transferred to a new 96-well plate to measure the absorbance at 414 nm using a microplate reader (STAT FAX 2100, BioTek, Winooski, USA). Finally, the percentage of hemolysis was calculated as follows: […]

Setting [11] is: A. flavus, mean of 3 independent tests.
Setting [12] is: A. niger, mean of 3 independent tests.
Setting [13] is: C. albicans, mean of 3 independent tests.
[14] abbreviates: C. glabrata, mean of 3 independent tests.
The mark [15] stands for this setting: C. krusei, mean of 3 independent tests.

≈ marks a conversion by molar mass, not a printed value. Like-named read-outs stand apart in the source and are kept apart here. No end group written: not given here. Where only a bound is given, the exact number is not on record here.

As for `OC(Cn1cncn1)(Cn1cncn1)c1ccc(F)cc1F` [Flu, Fluconazole, reference compound], the MIC in data set [1] (Aspergillus flavus, ATCC24, A. flavus, mean of 3 independent tests, read-out: MIC) is more than 1000 µg/mL; in data set [2] (Aspergillus niger, ATCC9142, A. niger, mean of 3 independent tests, read-out: MIC) it was 500 µg/mL (≈ 1630 µM); in [3] (Candida albicans, ATCC10, C. albicans, mean of 3 independent tests, read-out: MIC), 62.5 µg/mL (≈ 204 µM); in [4] (Nakaseomyces glabratus, ATCC90, C. glabrata, mean of 3 independent tests, read-out: MIC), 125 µg/mL (≈ 408 µM); in data set [5] (Pichia kudriavzevii, ATCC28, C. krusei, mean of 3 independent tests, read-out: MIC) it was 62.5 µg/mL (≈ 204 µM). Also, the MBC in data set [2] (Aspergillus niger, ATCC9142, A. niger, mean of 3 independent tests) was more than 1000 µg/mL; in data set [3] (Candida albicans, ATCC10, C. albicans, mean of 3 independent tests), 500 µg/mL (≈ 1630 µM); in data set [4] (Nakaseomyces glabratus, ATCC90, C. glabrata, mean of 3 independent tests) it was 500 µg/mL (≈ 1630 µM); in data set [5] (Pichia kudriavzevii, ATCC28, C. krusei, mean of 3 independent tests) it was 250 µg/mL (≈ 816 µM). Further, the “time to kill all C. albicans (maximum fungicidal effect)” value in [6] was “could not eliminate C. albicans after 24 h”.
For `C[C@@H]1[C@H](O)[C@@H](C)/C=C/C=C/CC/C=C/C=C/C=C/C=C/C(O[C@H]2O[C@H](C)[C@@H](O)[C@H](N)[C@@H]2O)CC2O[C@](O)(CC(O)C(O)CCC(O)CC(O)CC(O)CC(=O)O[C@H]1C)CC(O)C2C(=O)O` (stereo partly drawn) [Nys, Nystatin, reference compound], the “MBC (MFC)” value in data set [1] (setting [11]) turned out to be 62.50 µg/mL (≈ 67.5 µM); in [2] (setting [12]) it was 125 µg/mL (≈ 135 µM); in data set [3] (setting [13]) it was 3.90 µg/mL (≈ 4.21 µM); in data set [4] (setting [14]), 3.9 µg/mL (≈ 4.21 µM); in data set [5] (setting [15]) it was 3.90 µg/mL (≈ 4.21 µM). The MIC in data set [1] (setting [11]) was 7.81 µg/mL (≈ 8.43 µM); in data set [2] (setting [12]), 31.25 µg/mL (≈ 33.7 µM); in data set [3] (setting [13]) it was 1.95 µg/mL (≈ 2.11 µM); in data set [4] (setting [14]), 3.9 µg/mL (≈ 4.21 µM); in data set [5] (setting [15]), 1.95 µg/mL (≈ 2.11 µM). Also, the “time to kill all C. albicans (maximum fungicidal effect)” value in [6] turned out to be 8 h.
In the case of `[H]/N=C(/N)N[C@H]1[C@H](O)[C@@H](O)[C@H](O[C@@H]2O[C@@H](C)[C@](O)(C=O)[C@H]2O[C@@H]2O[C@@H](CO)[C@H](O)[C@@H](O)[C@@H]2NC)[C@@H](N/C(N)=N\[H])[C@@H]1O` [Strep, Streptomycin, reference compound], the MIC came out at 3.9 µg/mL (≈ 6.71 µM) in data set [7] (Escherichia coli, ATCC25, E. coli, mean of 3 independent tests, read-out: MIC) and 62.5 µg/mL (≈ 107 µM) in data set [8] (Staphylococcus aureus, ATCC25, S. aureus, mean of 3 independent tests, read-out: MIC).
Take Ac-WFKIIKK [Ac-AurH1, Ac-WFKIIKK]: the MIC is given as more than 1000 µg/mL in data set [1] (ATCC 24, 24 h); more than 1000 µg/mL in data set [2] (ATCC 9142, 24 h); 250 µg/mL in data set [3] (ATCC 10, 24 h); more than 1000 µg/mL in [4] (ATCC 90, 24 h); 500 µg/mL in [5] (ATCC 28, 24 h); more than 1000 µg/mL in [7] (ATCC 25, 24 h). In addition, in [8] (ATCC 25, 24 h), the MIC was more than 1000 µg/mL. Moreover, the “MBC (MFC)” value in data set [3] (ATCC 10, 24 h) is more than 1000 µg/mL; in data set [5] (ATCC 28, 24 h), more than 1000 µg/mL. The toxicity entry in data set [9] was “more than 10%”. The “HC50 (concentration that lyses 50% of red blood cells)” value in [10] is recorded as 10,127 µg/ml.
Take Penicillin [reference compound]: the MIC is given as 31.25/NA µg/mL in [7] (E. coli, mean of 3 independent tests) and 0.45/NA µg/mL in data set [8] (S. aureus, mean of 3 independent tests).
